Reference: US9688667B2, “Tazarotene with low dimer impurity for treating acne or psoriasis” (SUN PHARMACEUTICAL INDUSTRIES LIMITED, priority 2013, dated 2017)

Key:
[1] = system: ear of Sprague Dawley Rats; test: Toxicity study: topical application of tazarotene spiked with dimer impurity on rat ears, ear thickness measurement; format: in vivo
Protocol: Inventor performed the toxicity study of tazarotene spiked with known dimer impurity by applying the fixed concentration a solution of tazarotene (0.1% w/v tazarotene) with variable concentrations of impurity (0-1500 ppm) on Sprague Dawley Rats as given in Table 1.
Each sample (100 μl) was applied topically once daily on the left and right ear of the animals (Sprague Dawley Rats) of the respective groups from day 0 to day 9. Animals were checked for recovery from day 10 to day 14. Ear thickness measurement was repeated on day 3, 7, 10, 12 and 14.

[2] = tazarotene gel, psoriasis, cited from earlier work

Compound | effect of level of dimer impurity on ear thickness and inflammation ([1]; dimer impurity 0-1500 ppm in tazarotene samples, topical application) | toxicity of the dimer impurity ([1]; found during the animal studies) | cessation of treatment due to adverse events ([2]; of patient population) | most common adverse effect [2]
CC1(C)CCSc2ccc(C#CC#Cc3ccc4c(c3)C(C)(C)CCS4)cc21 [dimer impurity, 4,4-dimethyl-6-[4-(4,4-dimethylthiochroman-6-yl)-buta-1,3-diynyl]-thiochroman] | dose dependent and significant increase | highly toxic | – | –
CCOC(=O)c1ccc(C#Cc2ccc3c(c2)C(C)(C)CCS3)nc1 [tazarotene, ethyl 6-[(4,4-dimethylthiochroman-6-yl)ethynyl]nicotinate] | – | – | about 5% | mild to moderate burning, pruritus, stinging and erythema
